Values quoted from earlier work in patent US20020028759A1, “Detergent compositions” (Unilever Home & Personal Care USA, Division of Conopco, Inc., priority 1999, published 2002).
Like-named read-outs stand apart in the source and are kept apart here.

Details: 20° C.
[1] = other common materials, by contrast

Water Solubility (g/100 g) (highly water-soluble materials) | SMILES | Water Solubility (g/100 g) [1] [g/100 g]
 | O=P(O)(O)OP(=O)(O)OP(=O)(O)O [Sodium tripolyphosphate anhydrous] | 15
 | O=BO[O-].[Na+] [Sodium perborate anhydrous] | 3.7
>100 | NC(N)=O [Urea] | 
